Laboratory results as given in patent publication EP0240854A1, “Bis-tert-butylamino-substituted 1,3,5-triazine derivatives, process for their preparation, medicaments containing these compounds, and their use” (HOECHST AKTIENGESELLSCHAFT, priority 1986, dated 1987).

Each compound was assayed on Pentetrazol-induzierte Krämpfe (assay: Antagonism against pentetrazol-induced convulsions (Swinyard)). Details: Mus musculus, po, 1 h, p.o., pentetrazol 125 mg/kg s.c. 1 h after test substance, tonic extensor convulsions; read-out: Ptz Maus ED 50.
Format: in vivo, Maus
From the text: (§1) Die Krampf-verhindernde (antikonvulsive) Wirkung der erfindungsgemäßen Verbindungen wurde an Mäusen gegen Pentetrazol- und gegen Elektroschock- induzierte Krämpfe in der Anordnung von SWINYARD geprüft.
1. Antagonismus gegen Pentetrazol-induzierte Krämpfe (Maus)
Methode (E.A.SWINYARD, J.Pharmacol.Exp.Ther. 106, (1952), 319-330):
Gruppen von 10 männlichen Mäusen (Stamm: NMRI, SPF-71, KF) im Gewicht von 18-22 g werden in diesem Versuch verwendet. Die zu prüfenden Substanzen werden in einer 1 %-igen Aufschwemmung von ®Tylose (Methyl-hydroxy-ethyl-cellulose) in Wasser suspendiert und per Schlundsonde in einem Volumen von 10 ml/kg Körpergewicht oral verabreicht. Die Kontrollgruppe erhält ein entsprechendes Volumen Tylosesuspension ohne Prüfsubstanz. Pentetrazol (Cardiazol®) wird in wässriger Lösung in einer Dosis von 125 mg/kg Körpergewicht 1 Stunde nach Verabreichung der Prüfsubstanzen subcutan injiziert. Diese Dosis erzeugt bei 90-100 % der Kontrolltiere innerhalb der Beobachtungszeit von 60 Minuten nach der Injektion tonische Extensorkrämpfe der hinteren Extremitä-ten. Als Schutzwirkung der Prüfsubstanz wird gewertet, wenn die Anzahl der krampfenden Tiere gegenüber der Kontrollgruppe vermindert ist. Bei vorhandener Schutzwirkung der Prüfsubstanz wird eine mittlere effektive Dosis (ED-50) grafisch (Litchfield and Wilcoxon) oder rechnerisch (Probitanalyse) ermittelt.

| SMILES | ED50 [mg/kg] |
| --- | --- |
| CC(C)(C)Nc1nc(NC2CCCC2)nc(NC(C)(C)C)n1 [Beispiel 9, 2,4-Bis-(tert.butylamino)-6-cyclopentylamino-1,3,5-triazin] | 10.3 |
| CC(C)C(C)Nc1nc(NC(C)(C)C)nc(NC(C)(C)C)n1 (stereo not drawn) [Beispiel 10, 2,4-Bis-(tert.-butylamino)-6-(1,2-dimethylpropylamino)-1,3,5-triazin] | 30 |
| CC(C)Nc1nc(NC(C)(C)C)nc(NC(C)(C)C)n1 [Beispiel 8, 2,4-Bis-(tert.butylamino)-6-isopropylamino-1,3,5-triazin] | 2.3 |
| CC(C)(C)Nc1nc(NC(C)(C)C)nc(N2CCCCC2)n1 [Beispiel 1, 2,4-Bis-(tert.butylamino)-6-piperidino-1,3,5-triazin] | 4.2 |
| CC(C)(C)Nc1nc(NC(C)(C)C)nc(N2CCCC2)n1 [Beispiel 2, 2,4-Bis-(tert.butylamino)-6-pyrrolidino-1,3,5-triazin] | 2.4 |

Same assay, conditions: p.o., pentetrazol 125 mg/kg s.c. 1 h after test substance, tonic extensor convulsions; 60 min

| SMILES | Ptz Maus ED 50 [mg/kg] |
| --- | --- |
| CC(C)(C)Nc1nc(NC(C)(C)C)nc(N2CCCCC2)n1 [Beispiel 1, 2,4-Bis-(tert.butylamino)-6-piperidino-1,3,5-triazin] | 2.1 |

What follows are compounds tested on Elektroschock-induzierte Krämpfe (assay: Antagonism against electroshock-induced convulsions (Swinyard)). Details: Mus musculus, po, electroshock via corneal electrodes 1 h after test substance, tonic extensor convulsions; read-out: ECS Maus ED 50.
Format: in vivo
From the text: as §1
2. Antagonismus gegen Elektroschock-induzierte Krämpfe (Maus).
Methode (E.A.SWINYARD, In: Experimental Models of Epilepsy, Raven Press, New York, 1972, p. 433-458):
Gruppen von 6 männlichen Mäusen (Stamm: NMRI, SPF-71, KF) im Gewicht von 18-22 g werden in diesem Versuch verwendet. Die zu prüfenden Substanzen werden in einer 1 %igen Aufschwemmung von Tylose (Methyl-hydroxy-ethyl-cellulose) in Wasser suspendiert und per Schlundsonde in einem Volumen von 10 ml/kg Körpergewicht oral verabreicht. Die Kontrollgruppe erhält ein entsprechendes Volumen Tylosesuspension ohne Prüfsubstanz. Eine Stunde nach Prüfsubstanzgabe wird den Tieren über Cornea-Elektroden ein Elektroschock verabreicht (Stromstärke 12-22 mA, Dauer 0,2 sec, 50 Hz), nachdem vorher an einer zweiten Kontrollgruppe die Stromstärke ermittelt worden war, die bei 100 % der Tiere eine tonischen Extensorkrampf der hinteren Extremitäten hervorruft. Die Anzahl der durch die Prüfsubstanz vor einem Extensorkrampf geschützten Tiere dient als Mass der antikonvulsiven Wirkung in diesem Test. Bei vorhandener Schutzwirkung der Prüfsubstanz wird eine mittlere effektive Dosis (ED-50) grafisch (Litchfield and Wilcoxon) oder rechnerisch (Probitanalyse) ermittelt.

| SMILES | ED50 [mg/kg] |
| --- | --- |
| CC(C)(C)Nc1nc(NC2CCCC2)nc(NC(C)(C)C)n1 [Beispiel 9, 2,4-Bis-(tert.butylamino)-6-cyclopentylamino-1,3,5-triazin] | 24.7 |
| CC(C)C(C)Nc1nc(NC(C)(C)C)nc(NC(C)(C)C)n1 (stereo not drawn) [Beispiel 10, 2,4-Bis-(tert.-butylamino)-6-(1,2-dimethylpropylamino)-1,3,5-triazin] | 19.7 |
| CC(C)Nc1nc(NC(C)(C)C)nc(NC(C)(C)C)n1 [Beispiel 8, 2,4-Bis-(tert.butylamino)-6-isopropylamino-1,3,5-triazin] | 46.6 |
| CC(C)(C)Nc1nc(NC(C)(C)C)nc(N2CCCCC2)n1 [Beispiel 1, 2,4-Bis-(tert.butylamino)-6-piperidino-1,3,5-triazin] | 32 |
| CC(C)(C)Nc1nc(NC(C)(C)C)nc(N2CCCC2)n1 [Beispiel 2, 2,4-Bis-(tert.butylamino)-6-pyrrolidino-1,3,5-triazin] | 30 |

What follows are compounds tested on Wistar Ratten (assay: Lick-shock-conflict test (Vogel)). Details: Rattus norvegicus, po, lowest dose with significant increase of lickings in the shock phase; read-out: Lick-Sh. Ratte MED.
Format: in vivo, Ratte
From the text: (§2) Die Angst-lösende (anxiolytische Wirkung) der erfindungsgemäßen Verbindungen wurde im "Lick-shock-conflict- Test" nach VOGEl und im "Geller-Seifter-Konflikt-Test" nach GELLER und SEIFTER an WISTAR-Ratten geprüft.
3. Lick-shock-conflict-Test
Methode (VOGEL, J.R., Psychopharmacologia 21, (1971), 1-7
Männliche Wistar Ratten aus eigener Aufzucht (SPF Hattersheim) im Gewicht zwischen 90 und 120 g werden verwendet. Den Tieren wird für 48 Stunden vor Testbeginn das Trinkwasser entzogen. Zum Test werden die Tiere in eine Plastikbox (14x12x28 cm, BxTxH) gesetzt, die mit einer Wasserflasche mit Metall-Trinkrohr ausgestattet ist und die außerdem erlaubt, über eine elektronische Schaltung die Anzahl der Kontakte der Zunge des Tieres mit dem Trinkrohr zu messen. Der Boden der Box besteht aus Metallstäben, die durch die Steuerungselektronik unter Strom gesetzt werden können. Die Tiere haben nach dem Einsetzen in die Box 5 min. Zeit, um das Trinkrohr zu finden und 50-mal daran zu lekken. Tiere, die das Trinkrohr innerhalb dieser Zeit nicht gefunden haben, werden für den Versuch nicht verwendet. Nach diesen 50 Leckvorgängen (lickings) werden Trinkrohr und Bodenstäbe für jeweils 5 sec unter Strom gesetzt (Gleichstrom 300 µA) und dann für weitere 5 sec. wieder freigegeben. Diese Folge wird alternierend für eine Zeit von 5 min. weitergeführt, wobei die Zahl der Trinkrohr-Kontakte des Tieres während der Reizstrom- und der reizstromfreien Phase auf verschiedenen elektronischen Zählern registriert werden.
Gruppen von jeweils acht Tieren pro Dosis werden mit den Prüfsubstanzen, die in einem 1 %igen Tylose-Gel aufgeschwemmt sind, oral per Schlundsonde behandelt. Das Injektionsvolumen beträgt 5 ml/kg Körpergewicht. Die Prüfung in der obg. Testapparatur erfolgt 1 und 2 Std. nach Applikation der Prüfsubstanzen. Die Anzahl der Trinkrohr-Kontakte in der Reizstrom-Phase dient als Prüf-Variable. Die mittlere Anzahl der Kontakte in dieser Phase bei der Kontrollgruppe wird zu 100 % gesetzt und Zu- oder Abnahme der Kontaktzahl bei den mit Prüfsubstanz behandelten Tieren wird prozentual in Bezug auf die Kontrollgruppe ausgedrückt.
Anxiolytika bewirken in diesem Test gewöhnlich eine deutliche Zunahme der Wasseraufnahme (lickings) in der Reizstrom-Phase gegenüber den unbehandelten Kontrollen. Falls eine lineare oder logarithmische Beziehung zwischen Dosis und Wirkung gegeben ist, wird eine ED + 100 (d.i. die Dosis, die eine Zunahme der Wasseraufnahme um 100 % gegenüber der Kontrollgruppe bewirkt) mittels Regressionsanalyse errechnet. Ist eine lineare Dosisabhängigkeit nicht gegeben, so wird eine minimal effektive Dosis (MED) bestimmt, d.i. die niedrigste Dosis der Prüfsubstanz, die noch eine statistisch signifikante Zunahme der Wasseraufnahme im Vergleich zur Kontrollgruppe bewirkt (p=0,05, DUNNET-Test).

| SMILES | minimal effective dose [mg/kg] |
| --- | --- |
| CC(C)(C)Nc1nc(NC2CCCC2)nc(NC(C)(C)C)n1 [Beispiel 9, 2,4-Bis-(tert.butylamino)-6-cyclopentylamino-1,3,5-triazin] | 30 |
| CC(C)C(C)Nc1nc(NC(C)(C)C)nc(NC(C)(C)C)n1 (stereo not drawn) [Beispiel 10, 2,4-Bis-(tert.-butylamino)-6-(1,2-dimethylpropylamino)-1,3,5-triazin] | 30 |
| CC(C)Nc1nc(NC(C)(C)C)nc(NC(C)(C)C)n1 [Beispiel 8, 2,4-Bis-(tert.butylamino)-6-isopropylamino-1,3,5-triazin] | 10 |
| CC(C)(C)Nc1nc(NC(C)(C)C)nc(N2CCCCC2)n1 [Beispiel 1, 2,4-Bis-(tert.butylamino)-6-piperidino-1,3,5-triazin] | 10 |
| CC(C)(C)Nc1nc(NC(C)(C)C)nc(N2CCCC2)n1 [Beispiel 2, 2,4-Bis-(tert.butylamino)-6-pyrrolidino-1,3,5-triazin] | 10 |

Same assay, conditions: Rattus norvegicus, po; 10 mg/kg p.o., increase versus control group; read-out: Lick-Sh. Ratte prozentuale Zunahme der angenommenen Belohnungen (Wasser)

| SMILES | change in vivo at 10 mg/kg [%] |
| --- | --- |
| CC(C)Nc1nc(NC(C)(C)C)nc(NC(C)(C)C)n1 [Beispiel 8, 2,4-Bis-(tert.butylamino)-6-isopropylamino-1,3,5-triazin] | 154 |
| CC(C)(C)Nc1nc(NC(C)(C)C)nc(N2CCCCC2)n1 [Beispiel 1, 2,4-Bis-(tert.butylamino)-6-piperidino-1,3,5-triazin] | 63 |
| CC(C)(C)Nc1nc(NC(C)(C)C)nc(N2CCCC2)n1 [Beispiel 2, 2,4-Bis-(tert.butylamino)-6-pyrrolidino-1,3,5-triazin] | 61 |

Same assay, conditions: Rattus norvegicus, po; 30 mg/kg p.o., increase versus control group; read-out: Lick-Sh. Ratte prozentuale Zunahme der angenommenen Belohnungen (Wasser)

| SMILES | change in vivo at 30 mg/kg [%] |
| --- | --- |
| CC(C)(C)Nc1nc(NC2CCCC2)nc(NC(C)(C)C)n1 [Beispiel 9, 2,4-Bis-(tert.butylamino)-6-cyclopentylamino-1,3,5-triazin] | 68 |
| CC(C)C(C)Nc1nc(NC(C)(C)C)nc(NC(C)(C)C)n1 (stereo not drawn) [Beispiel 10, 2,4-Bis-(tert.-butylamino)-6-(1,2-dimethylpropylamino)-1,3,5-triazin] | 61 |
| CC(C)Nc1nc(NC(C)(C)C)nc(NC(C)(C)C)n1 [Beispiel 8, 2,4-Bis-(tert.butylamino)-6-isopropylamino-1,3,5-triazin] | 230 |
| CC(C)(C)Nc1nc(NC(C)(C)C)nc(N2CCCC2)n1 [Beispiel 2, 2,4-Bis-(tert.butylamino)-6-pyrrolidino-1,3,5-triazin] | 74 |

What follows are compounds tested on Wistar Ratten (assay: Geller-Seifter conflict test). Details: 3 mg/kg p.o.
Format: in vivo, Ratte
From the text: as §2
4. Geller-Seifter-Konflikt-Test
Methode (Geller, I.und Seifter, J., Psychopharmacologia 1 (1962), 482):
Männliche Wistar Ratten aus eigener Aufzucht (SPF Hattersheim) im Gewicht zwischen 240 und 370 g werden verwendet und Versuchsgruppen zu je 8 Tieren zugeordnet. Je 4 Tiere werden in Plastikkäfigen (56x38x20 cm) zusammengesetzt und durch abgewogene Futtermengen auf ca. 80 % ihres normalen Körpergewichts gehalten.
Die Tiere werden trainiert, in einer SKINNER-Box eine Taste zu drücken, um eine Belohnung in Form von gesüßter Kondensmilch zu erhalten. Die Box enthält zwei Tasten mit Mikroschaltern, einen Lautsprecher, ein Hauslicht, zwei Signallichter über den Tasten sowie einen Fußboden aus Metallstäben. Das Trainingsschema wurde der Arbeit von GELLER und SEIFTER (1962) in der Modifikation von DAVIDSON & COOK (Psychopharmacologia 15 (1969), 159-168) entlehnt: Jede Sitzung besteht aus vier 15-Minuten-Abschnitten, die alle aus einer 12-minütigen "Variable Interval" (VI) Phase und einer 3-minütigen "Fixed ration" (FR) Phase zusammengesetzt sind. Während der VI-Phase erhalten die Tiere auf Tastendruck Milchbelohnungen in einem durch einen Zufallsgenerator gesteuerten Intervall von 10-110 sec. mit einem Mittelwert um 60 15 sec. Während der FR-Phase erhalten die Tiere für jeden Tastendruck eine Belohnung, zusätzlich wird jedoch bei jedem 3. Tastendruck ein schmerzhafter elektrischer Reiz über die Fussbodenstäbe verabreicht, um eine Konfliktsituation zu erzeugen. Die Stromstärke des elektrischen Reizes wird für jedes Tier individuell so eingestellt (0,3-0,6 mA), daß die Tastendruckrate in der gesamten FR-Phase zwischen 5 und 15 liegt.
Das Training findet an 5 Tagen in der Woche statt, Versuche mit Prüfsubstanzen werden einmal wöchentlich durchgeführt. Da die Tiere als ihre eigene Kontrolle dienen, werden vor jedem Versuch mit Prüfsubstanzen mindestens zwei Vorwerte ohne Prüfsubstanz durchgeführt. Die zu prüfenden Verbindungen werden in einem 1 %igen Tylose-Gel suspendiert und 30 min vor Testbeginn oral per Schlundsonde in einem Volumen von 2 ml/kg verabreicht. Veränderungen der Tastendruckrate in der VI-Phase werden als Beeinflussung der motorischen Aktivität und Steigerung der Tastendruckrate in der FR-Phase werden als Anzeichnen für eine "Antikonflikt-" bzw. "anxiolytische" Wirkung gewertet. Bestimmt wird meist die minimal effektive Dosis (MED) der Prüfsubstanz, d.i. die niedrigste geprüfte Dosis, die noch eine statistisch signifikante Änderung der Tastendruckrate bewirkt (p=0,05; WILCOXON matched pairs signed rank test).

| SMILES | Geller Ratte prozentuale Zunahme der angenommenen Belohnungen (Milch) [%] |
| --- | --- |
| CC(C)(C)Nc1nc(NC(C)(C)C)nc(N2CCCCC2)n1 [Beispiel 1, 2,4-Bis-(tert.butylamino)-6-piperidino-1,3,5-triazin] | 91 |

Same assay, conditions: 10 mg/kg p.o.

| SMILES | Geller Ratte prozentuale Zunahme der angenommenen Belohnungen (Milch) [%] |
| --- | --- |
| CC(C)Nc1nc(NC(C)(C)C)nc(NC(C)(C)C)n1 [Beispiel 8, 2,4-Bis-(tert.butylamino)-6-isopropylamino-1,3,5-triazin] | 76 |
| CC(C)(C)Nc1nc(NC(C)(C)C)nc(N2CCCCC2)n1 [Beispiel 1, 2,4-Bis-(tert.butylamino)-6-piperidino-1,3,5-triazin] | 97 |

Same assay, conditions: 30 mg/kg p.o.

| SMILES | Geller Ratte prozentuale Zunahme der angenommenen Belohnungen (Milch) [%] |
| --- | --- |
| CC(C)Nc1nc(NC(C)(C)C)nc(NC(C)(C)C)n1 [Beispiel 8, 2,4-Bis-(tert.butylamino)-6-isopropylamino-1,3,5-triazin] | 91 |
| CC(C)(C)Nc1nc(NC(C)(C)C)nc(N2CCCCC2)n1 [Beispiel 1, 2,4-Bis-(tert.butylamino)-6-piperidino-1,3,5-triazin] | 382 |

Same assay, conditions: Rattus norvegicus, po, 0.5 h; p.o., 30 min before test, lowest dose with significant change of lever press rate; read-out: Geller Ratte MED

| SMILES | minimal effective dose [mg/kg] |
| --- | --- |
| CC(C)Nc1nc(NC(C)(C)C)nc(NC(C)(C)C)n1 [Beispiel 8, 2,4-Bis-(tert.butylamino)-6-isopropylamino-1,3,5-triazin] | 10 |
| CC(C)(C)Nc1nc(NC(C)(C)C)nc(N2CCCCC2)n1 [Beispiel 1, 2,4-Bis-(tert.butylamino)-6-piperidino-1,3,5-triazin] | 3 |
